# Data reported in the supplement of paper PMC10307832.
# Experiments:
# Experiment in all cases: relative viability (nuclei count vs DMSO), 5 days (fraction); higher = more cells survive
# [1] = compound: Nc1ncn([C@H]2C[C@H](O)[C@@H](CO)O2)c(=O)n1 [Decitabine] + CC1(C)CCC(c2ccc(Cl)cc2)=C(CN2CCN(c3ccc(C(=O)NS(=O)(=O)c4ccc(N[C@H](CCN5CCOCC5)CSc5ccccc5)c(S(=O)(=O)C(F)(F)F)c4)cc3)CC2)C1 [Navitoclax] (partner 0.5 µM)
# Procedure, shortened: (§1)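 Relative viability equals treated-well nuclei counts divided by vehicle-well nuclei counts. Counts came from 4× images of lung cancer cell lines grown in 1536-well plates for 5 days after pin-tool dosing on the day after seeding. Dosing used one drug alone or a fixed anchor-drug dose plus five library-drug doses (not always all listed) in √10 steps, and values are medians of duplicate plates.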
# [2] = compound: Nc1ncn([C@H]2C[C@H](O)[C@@H](CO)O2)c(=O)n1 [Decitabine] + Cc1nc(Nc2ncc(C(=O)Nc3c(C)cccc3Cl)s2)cc(N2CCN(CCO)CC2)n1 [Dasatinib] (partner 0.075 µM)
# Procedure, shortened: as §1
# [3] = compound: COc1cc2c(Oc3ccc4[nH]c(C)cc4c3F)ncnc2cc1OCCCN1CCCC1 [Cediranib] + Nc1nc2[nH]cc(CCc3ccc(C(=O)N[C@@H](CCC(=O)O)C(=O)O)cc3)c2c(=O)[nH]1 [Pemetrexed] (partner 0.2 µM)
# Procedure, shortened: as §1
# [4] = compound: COc1cc2c(Oc3ccc4[nH]c(C)cc4c3F)ncnc2cc1OCCCN1CCCC1 [Cediranib] + O=C(c1cc(Cc2n[nH]c(=O)c3ccccc23)ccc1F)N1CCN(C(=O)C2CC2)CC1 [Olaparib] (partner 8 µM)
# Procedure, shortened: as §1
Cell Line,relative viability ([1]; first compound 0.04 µM),relative viability ([1]; first compound 0.1265 µM),relative viability ([1]; first compound 0.4 µM),relative viability ([1]; first compound 1.265 µM),relative viability ([1]; first compound 4 µM),relative viability ([2]; first compound 0.04 µM),relative viability ([2]; first compound 0.1265 µM),relative viability ([2]; first compound 0.4 µM),relative viability ([2]; first compound 1.265 µM),relative viability ([2]; first compound 4 µM),relative viability ([3]; first compound 0.04 µM),relative viability ([3]; first compound 0.1265 µM),relative viability ([3]; first compound 0.4 µM),relative viability ([3]; first compound 1.265 µM),relative viability ([3]; first compound 4 µM),relative viability ([4]; first compound 0.04 µM),relative viability ([4]; first compound 0.1265 µM),relative viability ([4]; first compound 0.4 µM),relative viability ([4]; first compound 1.265 µM),relative viability ([4]; first compound 4 µM)
NCI-H2023,0.609,0.517,0.379,0.259,0.198,0.41,0.4,0.284,0.173,0.141,0.283,0.274,0.254,0.233,0.248,0.511,0.445,0.47,0.445,0.527
HCC-366,0.92,0.906,0.382,0.232,0.133,0.608,0.632,0.567,0.195,0.128,0.491,0.161,0.149,0.18,0.173,0.413,0.354,0.392,0.362,0.395
NCI-H1355,0.695,0.583,0.471,0.248,0.913,0.61,0.6,0.369,0.276,0.296,1.13,1.06,0.95,1.02,1.08,0.689,0.727,0.723,0.787,0.784
NCI-H661,–,–,–,–,–,0.679,0.629,0.475,0.305,0.347,0.974,0.927,0.935,0.891,1.03,0.763,0.785,0.713,0.703,0.817
NCI-H2342,–,–,–,–,–,0.329,0.365,0.308,0.295,0.303,0.764,0.808,0.805,0.681,0.797,0.419,0.398,0.46,0.455,0.458
NCI-H1299,1.04,1.03,1.02,0.898,0.848,–,–,–,–,–,–,–,–,–,–,0.999,0.96,0.92,0.949,0.97
NCI-H522,–,–,–,–,–,1.02,0.748,0.607,0.632,0.678,1.16,0.713,1.14,0.863,0.995,0.685,0.631,0.678,0.69,0.646
NCI-H1623,–,–,–,–,–,0.464,0.494,0.461,0.467,0.514,–,–,–,–,–,–,–,–,–,–
NCI-H1648,–,–,–,–,–,–,–,–,–,–,0.563,0.551,0.617,0.634,0.372,0.519,0.824,0.901,1.2,1.31
NCI-H1703,0.845,0.642,0.255,0.189,0.253,–,–,–,–,–,–,–,–,–,–,0.389,0.388,0.173,0.163,0.243
ABC-1,–,–,–,–,–,0.451,0.553,0.588,0.416,0.421,–,–,–,–,–,0.875,0.997,0.823,1.14,0.726
NCI-H650,–,–,–,–,–,0.422,0.443,0.357,0.344,0.275,0.862,0.569,0.955,0.978,1.08,0.331,0.282,0.423,0.405,0.583
